Source: patent US12215106B2, “Pharmaceutical compounds and therapeutic methods” (RUTGERS, THE STATE UNIVERSITY OF NEW JERSEY, priority 2018, dated 2025)
Structures can show the parent of a compound that is named as a salt.

Experiments:
in vitro [1] = conditions: pH 7.4; for % Remaining at 60 min (Buffer) / % Remaining at 60 min (+NADPH) / % Remaining at 60 min (−NADPH) / Percentage turnover in MLM (percent remaining), 60 min: 1 h; for % Remaining at 60 min (Buffer) / CLh, int / Percentage turnover in MLM (percent remaining), 0 min / Percentage turnover in MLM (percent remaining), 5 min / Percentage turnover in MLM (percent remaining), 15 min / Percentage turnover in MLM (percent remaining), 30 min / % Remaining at 60 min (+NADPH) / % Remaining at 60 min (−NADPH) / Percentage turnover in MLM (percent remaining), 60 min / Metabolic stability in liver microsomes, compound remaining: 1 μM; for CLh, int / Percentage turnover in MLM (percent remaining), 0 min / Percentage turnover in MLM (percent remaining), 5 min / Percentage turnover in MLM (percent remaining), 15 min / Percentage turnover in MLM (percent remaining), 30 min / % Remaining at 60 min (+NADPH) / % Remaining at 60 min (−NADPH) / Percentage turnover in MLM (percent remaining), 60 min / Metabolic stability in liver microsomes, compound remaining / half-life at 1 μM: mouse; for Percentage turnover in MLM (percent remaining), 0 min / Percentage turnover in MLM (percent remaining), 5 min / Percentage turnover in MLM (percent remaining), 15 min / Percentage turnover in MLM (percent remaining), 30 min / % Remaining at 60 min (+NADPH) / % Remaining at 60 min (−NADPH) / Percentage turnover in MLM (percent remaining), 60 min / Metabolic stability in liver microsomes, compound remaining / half-life at 1 μM: microsomes; for Percentage turnover in MLM (percent remaining), 0 min: 0 h; for Percentage turnover in MLM (percent remaining), 15 min: 0.25 h; for Percentage turnover in MLM (percent remaining), 30 min: 0.5 h; for Metabolic stability in liver microsomes, compound remaining: 60 min
Experimental: The objective of the study was to evaluate the metabolic stability of test compounds in liver microsomes from mice (MLM). This was accomplished by incubating test compounds with microsomes and monitoring disappearance with time using LCMS/MS. Imipramine in MLM was run as positive control.
Potassium phosphate buffer (Kphos) was prepared by adding 0.647 g potassium phosphate monobasic (KH2PO4) and 3.527 g potassium phosphate dibasic (K2HPO4) to 400 mL of Milli-Q water. pH of the buffer was adjusted to 7.4 and volume was made up to 500 mL.
Stock solutions of test compounds were prepared in DMSO at a concentration of 1 mM.
From the above mix, 70 μL was added to individual wells of 96 well reaction plates and pre-incubated at 37° C. for 5 min. […] Reactions without NADPH and buffer controls (minus NADPH) at 0 minutes and 60 minutes were also incubated to rule out non-NADPH metabolism or chemical instability in the incubation buffer. All reactions were terminated using 100 μL of ice-cold acetonitrile containing internal standard (glipizide) at 0, 5, 15, 30 and 60 minutes.
Samples were monitored for parent compounds disappearance in MRM mode using LC-MS/MS.
The percent remaining of test compounds and positive control in each sample was determined by considering peak area ratio in the 0 minute sample as 100%.
In vitro intrinsic clearance (CL'int) (units in mL/min/kg) was also calculated.

mice plasma = assay: in vitro; format: in vitro ADME; conditions: mouse, plasma, 4 h, 5 μM
Experimental: (§1) The objective of this study was to evaluate protein binding test compounds in mice plasma. This was accomplished by spiking the test compounds at a concentration of 5 μM into mice plasma and dialyzing against buffer until equilibrium is achieved (4 hours). Analyte area ratios of the test compounds in plasma and buffer were determined to calculate unbound and bound percentages of compound to the plasma proteins.
(§2) Phosphate buffered saline pack (0.1 M sodium phosphate and 0.15 M sodium chloride, pH 7.2) was dissolved in 500 mL of deionized water and pH was adjusted to 7.4 with 0.5 N NaOH.
(§3) 1 mM stock solutions were prepared in DMSO and diluted 200-folds in mice plasma to prepare a concentration of 5 μM. The final DMSO concentration in plasma was 0.5%.
(§4) Rapid equilibrium dialysis was performed with a rapid equilibrium dialysis (RED) device containing dialysis membrane with a molecular weight cut-off of 8,000 Daltons. Each dialysis insert contains two chambers. The red chamber is for plasma while the white chamber is for buffer.
(§5) A 200 μL aliquot of warfarin and test compound at 5 (triplicates) were separately added to the plasma chamber and 350 μL of phosphate buffer saline (pH 7.4) was added to the buffer chamber of the inserts. After sealing the RED device with an adhesive film, dialysis was performed in incubator at 37° C. with shaking at 100 RPM for 4 hours.
(§6) A 50 μL aliquot of warfarin and test compounds were added to four 0.5 mL microfuse tubes. Two aliquots were frozen immediately (0 minute sample). The other two aliquots were incubated at 37° C. for 4 hours along with the RED device.
(§7) Following dialysis, an aliquot of 50 μL was removed from each well (both plasma and buffer side) and diluted with equal volume of opposite matrix (dialyzed with the other matrix) to nullify the matrix effect. Similarly, 50 μL of buffer was added to recovery and stability samples. An aliquot of 100 μL was submitted for LCMS/MS analysis.
(§8) A 25 μL aliquot of warfarin and test compounds were crashed with 100 μL of acetonitrile containing internal standard (glipizide) and vortexed for 5 minutes. The samples were centrifuged at 4000 RPM at 4° C. for 10 min and 100 μL of supernatant was submitted for LC-MS/MS analysis. Samples were monitored for parent compound in MRM mode using LC-MS/MS.
(§9) The peak area ratios (analyte versus internal standard) obtained were used to determine the fraction of compound bound to plasma proteins.

in vitro [2] = format: in vitro ADME, mice; conditions: mouse; for recovery at 4 h, 5 µM: pH 7.4; for fraction unbound at 4 h, 5 μM: plasma
Experimental: as §1, §2, §3, §4, §5, §6, §7, §8, §9

phospho-RB = assay: Western blotting of phospho-RB levels in GBM spheres; format: cell-based, human; conditions: for phospho-RB (pRB) levels: GBM spheres, 72 hours, Western blotting
Experimental: Cells were lysed in Cell Lysis Buffer (Cell Signaling, #9803) supplemented with Protease Inhibitor Cocktail (Sigma, #P8340), sonicated briefly while on ice and spun down for 30 minutes at 4° C., after which the supernatant was collected. For each sample, 2 uL of lysate was mixed well into 198 uL de-ionized water. Next, 10 uL of this diluted sample was added to a well in a 96 well plate in quadruplets and mixed with Protein Assay Dye Reagent Concentrate (Bio-Rad, #500-0006) (which was diluted 1:5 with water). BSA standards of 25 ng, 50 ng, 100 ng, 200 ng and 250 ng were also used to the plate and mixed with the reagent. The plate was read in a plate reader at 600 nm and samples were calibrated to the standards to determine the concentration of protein. Using the NuPAGE system (Invitrogen), 25 ug of protein was mixed with NuPAGE LDS 4× Sample Buffer (#NP0007), NuPAGE 10× Reducing Agent (#NP0004) and water, mixed well and heated at 96° C. for 15 minutes to denature the protein. The samples were then loaded into 4-12% Bis-Tris gels (Novex (Invitrogen), #0323) with a protein ladder (Novex (Invitrogen) Sharp Pre-stained protein ladder, #57318) and run at 100-120V for about 2 hours with NuPAGE 20×SDS MES Running Buffer (#NP0002) diluted with water. Next, the gel was taken out and loaded into a NuPAGE transfer cassette with a polyvinylidene membrane with NuPAGE 20× Transfer Buffer (#NP0006-1) diluted with water and methanol. Proteins were transferred for 1 hour at 30V at room temperature. Blocking was performed using the Millipore SNAP i.d. Protein Detection system in 0.25% non-fat dry milk in 0.1% Tween in PBS (PBST). Primary antibodies against BMI1 (Cell Signaling, #6964), mouse monoclonal antiphospho-RB, anti-CDK4, anti-STAT1, anti-PD-L1 (1:1,000) (Millipore), and housekeeping control rabbit polyclonal anti-vinculin (1:1000) (Cell Signaling) were incubated overnight with gentle rocking at 4° C. in the blocking solution. The following day, membranes were washed 3 times with PBST in the SNAP i.d. system before being incubated with secondary antibody in blocking buffer for 1 hour at room temperature. Three washes were then performed in the SNAP i.d. system. Protein signals were detected using ECL Western Blotting Substrate (Pierce, #32106) and filmed.
GBM CSCs are known to be quiescent and therefore resistant to standard chemo/radiotherapy. The retinoblastoma (Rb) tumor suppressor protein regulates cell proliferation by controlling progression through the restriction point within the G1-phase of the cell cycle. Cell cycle-dependent phosphorylation for Ser780 by cyclin D1-CDK4/6 inhibits Rb target binding and allows cell cycle progression.

Compound	% Remaining at 60 min (Buffer) (in vitro [1]) [%]	CLh, int (in vitro [1]) [mL/min/kg]	Percentage turnover in MLM (percent remaining), 0 min (in vitro [1]) [%]	Percentage turnover in MLM (percent remaining), 5 min (in vitro [1]) [%]	Percentage turnover in MLM (percent remaining), 15 min (in vitro [1]) [%]	Percentage turnover in MLM (percent remaining), 30 min (in vitro [1]) [%]	% Remaining at 60 min (+NADPH) (in vitro [1]) [%]	% Remaining at 60 min (−NADPH) (in vitro [1]) [%]	Percentage turnover in MLM (percent remaining), 60 min (in vitro [1]) [%]	Metabolic stability in liver microsomes, compound remaining (in vitro [1]) [%]	half-life at 1 μM (in vitro [1]) [min]	% compound remaining at 4 hrs (mice plasma) [%]	fraction unbound at 4 h, 5 μM (in vitro [2]; pH 7.4, % Bound Mean ± SD)	fraction unbound at 4 h, 5 μM (in vitro [2]; pH 7.4, % Bound R1)	fraction unbound at 4 h, 5 μM (in vitro [2]; pH 7.4, % Bound R2)	fraction unbound at 4 h, 5 μM (in vitro [2]; pH 7.4, % Bound R3)	fraction unbound at 4 h, 5 μM (in vitro [2]; pH 7.4, PPB at 4 h)	phospho-RB (pRB) levels (phospho-RB)	other results
COc1c(F)cc(Nc2nc(-c3c(C)nc4ccccn34)cs2)cc1F [Compound 14, hydrochloride]	66	550	100	88	62	36	13	33	13	< 50	20	76	0.003	0.002	0.003	0.002	0.24	lowered pRB	recovery at 4 h, 5 µM (in vitro [2]): 124%; phospho-RB levels, time-course (phospho-RB; 7-10 nM, time-course of 120 hours): downregulation of phospho-RB levels
[2H]C([2H])([2H])Oc1ccc(Nc2nc(-c3c(C)nc4ccccn34)cs2)cc1 [Compound 15, N-(4-(methoxy-d3)phenyl)-4-(2-methylimidazo[1,2-c]pyridin-3-yl)thiazol-2-amine hydrochloride]	85	215	100	100	98	67	48	93	48	< 50	52	90	0.001	0.001	0.001	0.001	0.1	lowered pRB	recovery at 4 h, 5 µM (in vitro [2]; Plasma): 114%
